Measured values from patent publication US12037417B2, “Site-specific radioisotope-labeled antibody using IgG-binding peptide” (Kagoshima University, priority 2016, dated 2024).

What was measured:
human IgG = human IgG (Homo sapiens, UniProt P01857); assay: SPR affinity analysis of IgG-binding peptides on immobilized IgG (BIAcore T200); design: kd: unit not given here; conditions: for ka / kd: SPR, peptides N-terminally blocked with biotinylated PEG4, NHS group hydrolysed
Method: 0.4 M EDC (1-ethyl-3-(3-dimethylaminopropyl)-carbodiimide) and 0.1 M sulfo-NHS (sulfo-N-hydroxysuccinimide) were mixed in equal amounts and then injected onto a CMS sensor chip loaded in BIAcore T200 (GE Healthcare Japan Corp.) for 7 minutes at a flow rate of […] to activate the sensor chip. IgG was immobilized thereonto in an amount of 4000 to 5000 in terms of RU value under conditions of pH 4.0 (10 mM sodium acetate). While a HBS-EP buffer solution (0.01 M HEPES, 0.15 M NaCl, 0.005% Tween 20, and 3 mM EDTA, pH 7.0) was used, binding reaction was monitored by the injection of the peptide at a concentration of 10 nM to 2 μM for 180 seconds at a flow rate of […]. Then, dissociation reaction was assayed by washing with a buffer solution for 600 seconds. Binding parameters were analyzed using BIAevalution T100 software.

hIgG = target: T1, hIgG (Homo sapiens, UniProt P01857); assay: ELISA of biotinylated IgG-binding peptide on plate-adsorbed hIgG; conditions: peptide unmodified with cross-linking agent
T1 construct: purchased Chugai Pharmaceutical Co., Ltd
Method: A 0.1 M NaHCO3 solution containing each protein (IgG (Chugai Pharmaceutical Co., Ltd.), IgA (Athens Research & Technology, Inc.), or bovine gelatin (Wako Pure Chemical Industries, Ltd.)) (50 ng (0.33 pmol)/μ1/well) was added to wells of a 96-well microplate (Nunc® MaxiSorp), and the plate was left overnight at room temperature to adsorb each protein onto the surface of the plate. After blocking with 0.5% BSA, a biotinylated IgG-binding peptide modified with DSG (molar ratio: 0, 1, 2, 5, or 10), prepared in the same way as in Example 2 was added to each well. After 1 hour, the reaction was terminated by the addition of 1 M Tris-HCl (pH 7.0) at 3 μL/well. SA-HRP (Vector Laboratories, Inc.) diluted 2000-fold with 0.5% BSA was added thereto at 50 μL/well and reacted at room temperature for 1 hour. Then, the plate was washed five times with 0.1% PBST. Then, a TMB solution (Wako Pure Chemical Industries, Ltd.) was used in the color development of HRP. After 5-minute chromogenic reaction, the absorbance at 450 nm was measured using an ELISA plate reader (model 680 microplate reader (Bio-Rad Laboratories, Inc.)).
The biotinylated IgG-binding peptide modified with DSG was added at a molar ratio of 2 to hIgG (50 ng) immobilized overnight at 4° C. with a 50 ng/50 μL solution. […] The binding was detected in the same way as in (A).

human IgG, sequence (P01857 1-328): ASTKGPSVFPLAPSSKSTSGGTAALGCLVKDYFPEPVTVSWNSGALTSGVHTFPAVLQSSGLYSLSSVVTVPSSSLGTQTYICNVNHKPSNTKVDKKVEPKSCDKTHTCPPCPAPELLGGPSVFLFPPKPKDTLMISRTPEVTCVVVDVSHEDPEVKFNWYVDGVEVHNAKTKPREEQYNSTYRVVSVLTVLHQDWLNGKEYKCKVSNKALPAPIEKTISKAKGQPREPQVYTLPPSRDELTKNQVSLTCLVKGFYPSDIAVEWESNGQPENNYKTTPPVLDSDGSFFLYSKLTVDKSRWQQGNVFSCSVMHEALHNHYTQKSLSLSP
T1 sequence (P01857 1-328): as above

Substance: GDDCAYHK(DSG-OH)GELVWCTFH-NH2 [Type I(R8K)-DSG-OH]
- ka (human IgG): 3.29E+05
- kd (human IgG): 0.1036

Substance: GDDCAYHK(DSS-OH)GELVWCTFH-NH2 [Type I(R8K)-DSS-OH]
- ka (human IgG): 1.68E+05
- kd (human IgG): 0.06136

Substance: GPDCAYHRGELVWCTFH-NH2 [Type I]
- ka (human IgG): 1.57E+06
- kd (human IgG): 0.0144

Substance: GDDCAYHKGELVWCTFH-NH2 [Type I(R8K)]
- decrease of affinity for human IgG as compared with Type I (human IgG; R8K substitution versus peptide before substitution): 10 times
- ka (human IgG): 1.25E+06
- kd (human IgG): 0.195
- binding to hIgG (ELISA) (hIgG): Very weak binding
